The source of these data is patent publication US20260335388A1, “COMBINATION THERAPIES WITH ONCOLYTIC ADENOVIRUS AND TOPOISOMERASE I INHIBITORS OR PRODRUGS THEREOF” (priority 2022, published 2026).

Series [1] has as its system Y79 cells. Briefly: Viral production assay. The format is cell-based. Conditions: Y79 pre-infected with 500 MOI; topotecan 2 μM (FIG. 18F). As for the experimental part: Viral production assay. Y79 cells were infected with a concentration of 500 multiplicity of infection (MOI; i.e., transducing units of virus per cell), which was sufficient to achieve 80% to 100% infectivity. After 4 h, the cells were washed three times with PBS, fresh medium was added, and the cells were incubated with or without topotecan (2 μM). At time points 30, 48 and 72 h post-infection, the cell pellets were collected and exposed to three rounds of freeze-thaw lysis. Viral titers were determined in the pellets in triplicate, following an anti-hexon staining-based method in HEK293 cells (Cascallo et al., 2007).

The nature of series [2]: Accumulation of topotecan in VCN-01-infected retinoblastoma. It is filed as in vivo, mouse. From the text: Accumulation of topotecan in VCN-01-infected retinoblastoma. The Animal Experimental Ethics Committee at the University of Barcelona (animal protocol number 482/18) approved animal experimentation. Retinoblastoma cells in the eyes of athymic nude mice (Envigo, Barcelona, Spain), as previously described (Pascual-Pasto et al., 2016). After 14 days, VCN-01 (3×10^9 vp/eye) was inoculated. After another 14 days, s.c. osmotic pumps loaded with topotecan were implanted to achieve constant topotecan in plasma, as described previously (Pascual-Pasto et al., “Increased delivery of chemotherapy to the vitreous by inhibition of the blood-retinal barrier,” J Control Release 2017; 264:34-44), and collected tumor samples for analysis of topotecan.
Animal experiments were carried out following institutional and European guidelines (EU Directive 2010/63/EU) and the ARRIVE guidelines ([…]). Retinoblastoma cells (2×10^5) were inoculated into the posterior segment of the eye of six week old athymic nude mice using a dull 33G needle, as previously described (Giani et al., 1994). […] Samples were analyzed by high performance liquid chromatography (HLPC) as described previously ([…]).

The test system of series [3] is RBT-7 intracerebral tumors. Nature of the series: Antitumor activity in CNS-disseminated retinoblastoma. Conditions: control 22 days; P of combination vs control 0.0004, topotecan 0.0072, standard of care 0.0040, VCN-01 0.0372; animals dying of toxicity excluded (FIG. 22C). The format is in vivo, mouse. An excerpt: Antitumor activity in CNS-disseminated retinoblastoma. A model of retinoblastoma dissemination was established in the leptomeninges of the CNS. Anesthetized mice were restrained in a stereotactic apparatus (Stoelting, Wood Dale, IL, USA). Using a mouse brain atlas (Paxinos and Franklin, “The mouse brain in stereotaxic coordinates,” San Diego: Academic Press; 2001), the coordinates of the fourth ventricle were located and the surface of the skull was drilled. Then, […] (RBT-7) in 10 µL matrigel was injected with a dull 22G needle attached to a 50 µL syringe (Hamilton, Bonaduz, Switzerland). One week later, treatments were started with VCN-01 (3×10^9 vp in 20 µL vehicle, intraventricular, day 8), topotecan (0.6 mg/kg, i.p., days 8-12), SoC chemotherapy ([…], 40 mg/kg, i.p., day 8, and etoposide, 6 mg/kg, i.p., days 8-10) or the combination of VCN-01 and chemotherapies. The control group received the vehicle of VCN-01 (intraventricular). Animals achieved experimental endpoints upon deterioration of condition or 20% weight loss. Brains collected at endpoint were embedded in paraffin and stained with hematoxylin and eosin (H&E), human nuclei (MAB4383, 1:200, Millipore), viral protein E1A (ab33183, 1:200, Abcam) and CD45 (leukocyte common antigen; 70257, 1:200, Cell Signaling).

A further series has as its system RBT-7 xenografts. Nature of the series: Ocular survival, RBT-7 intraocular xenografts. The format is in vivo, mouse. The conditions noted are these: control 35 days; combination P<0.0001 (FIG. 20C). The procedure:
Antitumor activity in retinoblastoma. For orthotopic intraocular engraftments 2×10^5 retinoblastoma cells were inoculated per eye, in 2 μL matrigel (Pascual-Pasto et al., 2016). To obtain s.c. xenografts 10^6 cells were injected in 25 μl matrigel. For ocular tumors, treatments were started at day 8 after inoculation (when tumors were appreciable by fundus examination). For s.c. tumors, treatments were started when volumes achieved 100-300 mm^3 (day 1). After treatments, the survivors were followed up until endpoint and the median survival of each group was calculated, as described previously (Mandigo et al., 2022; Rodríguez-García et al., 2015).
In a second experiment, the sequence of administration of one injection of VCN-01 and one 5-day cycle of topotecan was addressed. Mice with intraocular tumors (Y79 or RBT-7) received either topotecan 0.6 mg/kg, i.p. on days 8-12, one intravitreal injection of VCN-01 (3×10^8 vp) on day 8, or the combination of topotecan and VCN-01. Y79-bearing mice also received a switched treatment sequence, with VCN-01 on day 12, after the last dose of topotecan.

In another series the test system is E2F-1, p21 and cyclin E1. It is filed as cell-based.
For series [4] the following is noted: non-tumor bearing pigs, cited from earlier work.
Series [5] deals with Y79 cells. Nature of the series: Cell cycle of retinoblastoma cells (propidium iodide cytometry). It is filed as cell-based. As for the experimental part:
Then, the cells were collected and fixed in 70% ethanol for 2 h. The propidium iodide (PI)-based assay FxCycle™ PI/RNase (Thermo Fisher Scientific) was used as staining solution prior to quantification by flow cytometry (NovoCyte).

`CC[C@@]1(O)C(=O)OCc2c1cc1n(c2=O)Cc2cc3c(CN(C)C)c(O)ccc3nc2-1` [Topotecan, topotecan]: the viral production result in the series with Y79 cells [1] is “did not increase viral production”. In series [2] (concomitant treatment with VCN-01 (FIG. 21)), the “biodistribution of topotecan in intraocular tumors” value is on record as “did not change”. For the same compound, the concentration at 6 h in series [2] (mouse, in vivo, sc, 25 ug/h, osmotic pump, 25 μg/h, athymic nude mice, read-out: topotecan plasma level at steady state) is approximately 100 ng/mL. In addition, the median survival in series [3] is reported as 28 days; in the series with RBT-7 xenografts, 39 days. Also, in the series on E2F-1, p21 and cyclin E1 (FIG. 17D), the “duration of E2F-1, p21 and cyclin E1 increase” value is “at least 48 h”. The “protein expression of E2F-1, p21 and cyclin E1” value in the series on E2F-1, p21 and cyclin E1 (Y79 cells (FIG. 17D)) is “increased protein expression of E2F-1, p21 and cyclin E1”. Further, the “onset of E2F-1, p21 and cyclin E1 increase” value in the series with E2F-1, p21 and cyclin E1 (after exposure (FIG. 17D)) was 1 h. In addition, the “systemic exposure, OAC versus IV” value in series [4] is on record as “systemic exposure was comparable between the two routes”. Moreover, the “topotecan concentration in retina, OAC versus IV” value in series [4] (retina, after OAC than after IV) is 146 times higher. Besides, the “topotecan concentration in vitreous, OAC versus IV” value in series [4] (vitreous, after OAC than after IV) is 243 times higher. Further, the “percentage of cells in S-phase” value in the series with Y79 cells [5] (24 h (FIG. 17A)) was “increased the percentage of cells in S-phase”. The “duration of S-phase effect” value with Y79 cells [5] (topotecan 2 μM (FIG. 17B,C)) is on record as “at least 48 h”.
